Assay results published in patent US7786155B2, “Organic compounds” (Novartis AG, priority 2007, dated 2010).

Molecular target: T1, recombinant human NPY Y2 receptors (Homo sapiens, UniProt P49146)
T1 construct: expressed in transfected cells; host or cells: CHO-C4 cells (membrane preparation)
T1 sequence (P49146 1-381): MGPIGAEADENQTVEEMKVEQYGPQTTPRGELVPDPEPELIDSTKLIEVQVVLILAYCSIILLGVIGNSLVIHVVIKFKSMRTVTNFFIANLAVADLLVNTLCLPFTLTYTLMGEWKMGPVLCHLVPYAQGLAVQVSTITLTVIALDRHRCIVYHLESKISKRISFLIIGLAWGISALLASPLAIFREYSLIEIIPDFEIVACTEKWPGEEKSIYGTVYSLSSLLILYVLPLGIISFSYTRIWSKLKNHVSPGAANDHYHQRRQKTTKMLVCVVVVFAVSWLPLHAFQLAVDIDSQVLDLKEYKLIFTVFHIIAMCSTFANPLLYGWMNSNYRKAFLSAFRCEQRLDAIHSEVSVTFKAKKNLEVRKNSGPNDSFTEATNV
Assay: Scintillation proximity [35S]GTPγS binding assay (inhibition of 0.5 nM NPY-stimulated [35S]GTPγS binding)
Type: biochemical
Settings: 10 μM compound, membranes from CHO-C4 cells expressing recombinant human NPY Y2 receptors
Method: Preparation of Membranes: CHO-C4 cells expressing recombinant human NPY Y2 receptors were used to prepare membranes for the GTPγS assay. Cells were grown to 80-95% confluency on 15-cm (225 cm^2) tissue culture plates. After aspiration of the culture medium, cells were washed twice with 18 ml ice-cold phosphate-buffered saline (PBS), scraped off and suspended in 3 ml ice-cold PBS in pre-cooled centrifuge tubes. The dishes were rinsed with 2 ml ice-old PBS per dish and the washings were combined with the PBS cell suspension from above. Cells pooled from 5-7 dishes were centrifuged for 5 min at 10,000 rpm (12,000 g) in a Sorvall RC5B centrifuge using an SS34 rotor at […]. The cell pellet was resuspended in 5 ml ice-cold buffer (20 mM HEPES, 10 mM EDTA; pH 7.4) by vortexing (2-5 sec), homogenized using a Polytron (step 4 for 20-30 sec), and ice-cold buffer added to 25 ml. The suspension was centrifuged again for 20 min at 18,000 rpm (39,000 g) at 4° C. and the pellet resuspended in 5 ml ice-cold buffer (20 mM HEPES, 0.1 mM EDTA; pH 7.4) by vortexing (2-5 sec), homogenized with a Polytron (step 4 for 10 sec), and ice-cold buffer added to 25 ml. The suspension was centrifuged a third time for 20 min at 18,000 rpm (39,000 g) at 4° C. The pellet was resuspend in 1 ml ice-cold buffer (20 mM Hepes, 0.1 mM EDTA; pH 7.4) by vortexing (5-8 sec). Two to five resuspended pellets were combined and homogenized using a Polytron (step 4 for 15-25 sec). A small aliquot (20-50 μl) was removed for protein determination by the Coomassie Plus Protein Assay Reagent (Pierce) using BSA as standard. The membrane suspension was aliquoted in precooled (on dry ice) Eppendorf tubes (0.25-1 ml/tube affording approximately 0.5-2 mg of membrane protein/tube). The pellets were frozen and stored at −80° C.
Scintillation proximity [^35S]GTPγS binding assay: Frozen membranes from CHO-C4 cells expressing recombinant human NPY Y2 receptors (2 mg for four 96-well plates) were thawed on ice. Thawed membranes were pipetted into 10 ml of assay buffer (20 mM HEPES, 10 mM MgCl2, 100 mM NaCl, pH 7.4) and homogenized briefly using a Polytron. The final assay mixture was prepared in 96-well microtiter plates (Isoplate Wallac, Perkin Elmer). The composition of the assay mixtures in a final volume of 250 μl per well was as follows: 20 mM HEPES, 10 mM MgCl2, 100 mM NaCl, pH 7.4, 30 μM GDP, 1 mg/ml BSA (added fresh), 5 μg membrane protein, 1.5 mg Wheatgerm agglutinin SPA beads (Amersham), 0.45 nM [^35S]GTPγS (Amersham, SJ1308, 1000 Ci/mmol, stabilized solution), and the test compounds (agonists and/or antagonists) at the appropriate concentrations. The samples were incubated at room temperature for 90 min by shaking, after which the SPA beads were sedimented by centrifugation in an Eppendorf 5804 centrifuge at 2700 rpm for 10 min at room temperature. After 60 min the plates were counted in a TopCount (Canberra). Basal [^35S]GTPγS binding was measured in the absence of agonist (NPY). Non-specific binding was measured in the presence of excess (10 μM) unlabelled GTPγS (Sigma). Nonspecific binding never exceeded 10% of basal binding and was thus not subtracted from the experimental data. Antagonists were tested for the inhibition of 0.5 nM NPY-stimulated [^35S]GTPγS binding. Antagonist inhibition curves were analyzed by non-linear regression using GraphPad Prism software (Version 4.0, GraphPad Software Inc., CA, USA).
Antagonistic activity of compounds of the present invention was examined by the Scintillation proximity [^35S]GTPγS binding assay as described above (inhibition of 0.5 nM NPY-stimulated [^35S]GTPγS binding). The table below represents percentages of inhibition at a concentration of 10 μM.

Question: With CCCC1(c2ccc(F)cc2)N=C(C)N(CC(=O)c2ccc(NC(=O)Cc3c(C)noc3C)cc2F)C1=O (racemic) [Compound 17] as the molecule, how does the “[%] inhibiton at 10 μM” value read?
Answer: 87%

Question: For CCCC1(c2ccc(F)cc2)N=C(C)N(CC(=O)c2ccc(N(C)C(=O)N(C)c3c(C)noc3C)cc2F)C1=O (racemic) [Compound 18], which “[%] inhibiton at 10 μM” value is on record?
Answer: 70%

Question: How did the “[%] inhibiton at 10 μM” value turn out when CCCC1(c2ccccc2)N=C(C)N(CC(=O)c2ccc(NC(=O)C(CC)CC)cc2)C1=O (single isomer, unassigned; (+)) [Compound 25] was run?
Answer: 92%

Question: Which “[%] inhibiton at 10 μM” value does the source give for CCCC1(c2ccc(F)cc2)N=C(C)N(CC(=O)c2ccc(NC(=O)Cc3c(C)noc3C)cc2F)C1=O (single isomer, unassigned; (+)) [Compound 36, (+)-2-(3,5-Dimethyl-isoxazol-4-yl)-N-(3-fluoro-4-{2-[4-(4-fluoro-phenyl)-2-methyl-5-oxo-4-propyl-4,5-dihydro-imidazol-1-yl]-acetyl}-phenyl)-acetamide] here?
Answer: 75%

Same assay, conditions: 10 μM compound, membranes from CHO-C4 cells expressing recombinant human NPY Y2 receptors, read-out: [%] inhibiton at 10 μM

Question: For CC1=NC(c2ccccc2)(c2ccccc2)C(=O)N1CC(=O)c1ccc(C(=O)NC(C)C(C)C)cc1 (racemic) [Compound 1, (+/−)-N-(1,2-Dimethyl-propyl)-4-[2-(2-methyl-5-oxo-4,4-diphenyl-4,5-dihydro-imidazol-1-yl)-acetyl]-benzamide], which inhibition at 10 µM is on record?
Answer: 34%

Question: How did the inhibition at 10 µM turn out when CCCC1(c2ccccc2)N=C(C)N(CC(=O)c2ccc(NC(=O)Nc3c(C)noc3C)cc2)C1=O (racemic) [Compound 6, (+/−)-1-(3,5-Dimethyl-isoxazol-4-yl)-3-{4-[2-(2-methyl-5-oxo-4-phenyl-4-propyl-4,5-dihydro-imidazol-1-yl)-acetyl]-phenyl}-urea] was run?
Answer: 99%

Question: For CCCC1(c2ccc(F)cc2)N=C(C)N(CC(=O)c2ccc(NC(=O)Nc3c(C)noc3C)cc2)C1=O (racemic) [Compound 7, (+/−)-1-(3,5-Dimethyl-isoxazol-4-yl)-3-(4-{2-[4-(4-fluoro-phenyl)-2-methyl-5-oxo-4-propyl-4,5-dihydro-imidazol-1-yl]-acetyl}-phenyl)urea], which inhibition at 10 µM is on record?
Answer: 91%

Question: Which inhibition at 10 µM does the source give for CCCC1(c2ccc(F)cc2)N=C(C)N(CC(=O)c2ccc(NC(=O)C(CC)CC)cc2)C1=O (racemic) [Compound 9, (+/−)-2-Ethyl-N-(4-{2-[4-(4-fluoro-phenyl)-2-methyl-5-oxo-4-propyl-4,5-dihydro-imidazol-1-yl]-acetyl}-phenyl)-butyramide] here?
Answer: 68%

Question: Which inhibition at 10 µM does the source give for CCCC1(c2ccccc2)N=C(C)N(CC(=O)c2ccc(NC(=O)Nc3c(C)noc3C)cc2F)C1=O (racemic) [Compound 10, (+/−)-1-(3,5-Dimethyl-isoxazol-4-yl)-3-{3-fluoro-4-[2-(2-methyl-5-oxo-4-phenyl-4-propyl-4,5-dihydro-imidazol-1-yl)-acetyl]-phenyl}-urea] here?
Answer: 97%

Question: CCCC1(c2ccc(F)cc2)N=C(C)N(CC(=O)c2ccc(NC(=O)Nc3c(C)noc3C)cc2F)C1=O (racemic) [Compound 11, (+/−)-1-(3,5-Dimethyl-isoxazol-4-yl)-3-(3-fluoro-4-{2-[4-(4-fluoro-phenyl)-2-methyl-5-oxo-4-propyl-4,5-dihydro-imidazol-1-yl]acetyl}-phenyl)-urea] was tested. Which inhibition at 10 µM did it give?
Answer: 96%

Question: Which inhibition at 10 µM does the source give for CCC(CC)C(=O)Nc1ccc(C(O)CN2C(=O)C(c3ccccc3)(c3ccccc3)N=C2C)cc1 (racemic) [Compound 26, (+/−)-2-Ethyl-N-{4-[1-hydroxy-2-(2-methyl-5-oxo-4,4-diphenyl-4,5-dihydro-imidazol-1-yl)-ethyl]-phenyl}-butyramide] here?
Answer: 45%

Question: How did the inhibition at 10 µM turn out when CCCC1(c2ccc(F)cc2)N=C(C)N(CC(=O)c2ccc(NC(=O)Cc3c(C)noc3C)cc2F)C1=O (single isomer, unassigned; (-)) [Compound 35, (−)-2-(3,5-Dimethyl-isoxazol-4-yl)-N-(3-fluoro-4-{2-[4-(4-fluoro-phenyl)-2-methyl-5-oxo-4-propyl-4,5-dihydro-imidazol-1-yl]-acetyl}-phenyl)acetamide] was run?
Answer: 92%
